We go through 16 compounds from patent publication US11655235B2, “Pyrrolidine and piperidine compounds” (YUHAN CORPORATION, priority 2019, dated 2023).

Molecules are shown by their SMILES.

What all share (format): biochemical
For test [1], the target named is T1, Recombinant human FAP (Homo sapiens, UniProt Q12884).
T1 construct: purchased R&D systems
T1 sequence (Q12884 1-760): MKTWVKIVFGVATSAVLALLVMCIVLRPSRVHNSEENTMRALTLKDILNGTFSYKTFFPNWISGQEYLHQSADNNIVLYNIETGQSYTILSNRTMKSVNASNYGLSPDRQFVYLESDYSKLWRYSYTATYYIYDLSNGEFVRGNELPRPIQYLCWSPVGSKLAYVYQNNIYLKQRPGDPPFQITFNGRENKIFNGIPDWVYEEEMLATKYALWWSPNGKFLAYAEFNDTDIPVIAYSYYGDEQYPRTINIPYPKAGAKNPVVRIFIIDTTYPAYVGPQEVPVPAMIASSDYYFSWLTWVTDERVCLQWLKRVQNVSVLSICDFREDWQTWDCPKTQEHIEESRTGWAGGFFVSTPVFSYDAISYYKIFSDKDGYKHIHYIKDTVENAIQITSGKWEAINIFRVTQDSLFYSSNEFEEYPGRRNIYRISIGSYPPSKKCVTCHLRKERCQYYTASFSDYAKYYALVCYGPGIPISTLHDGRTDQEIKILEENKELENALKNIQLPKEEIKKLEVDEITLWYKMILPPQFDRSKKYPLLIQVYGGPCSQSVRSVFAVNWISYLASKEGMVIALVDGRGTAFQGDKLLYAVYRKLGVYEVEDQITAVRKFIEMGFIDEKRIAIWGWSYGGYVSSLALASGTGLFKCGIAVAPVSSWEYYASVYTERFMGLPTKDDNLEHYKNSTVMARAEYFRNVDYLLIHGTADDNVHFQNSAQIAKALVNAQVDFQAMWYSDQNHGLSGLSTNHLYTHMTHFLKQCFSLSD
Briefly: FAP FRET assay, FGF21-sequence FRET peptide substrate. To be noted: FRET peptide with human FGF21 sequence, 6 μM, 37° C. How it is done: The compounds according to the present technology were evaluated in terms of the inhibitory effect on the activity of dipeptidyl peptidases including FAP by using a substrate producing fluorescent substances upon enzymatic decomposition. The test was conducted at 25° C. to get a final reaction volume of 100 μL in a 96 black well plate. […] Briefly, the test compounds were dissolved in dimethyl sulfoxide (DMSO) at a concentration of 20 mM and then subjected to serial dilution, thereby creating an 8 point curve. As for the control group, a 6 point curve created by serial dilution of Talabostat in the same buffer solution was used. Fluorescence intensity was measured using a microplate reader (Flexstation3, Molecular Devices) under the wavelength condition exciting at 380 nm and reading the emission at 460 nm. The inhibitory effect of the test compounds was measured as a decrease (%) in the signal rate as compared to the control group without any inhibitor. Data was fixed to a logistic model with four variables and IC50 value was calculated using GraphPad Prism program. For the FAP FRET assay, recombinant human FAP (R&D systems) was diluted with 50 mM HEPES (pH 7.2) buffer comprising 150 mM of sodium chloride, 0.1 mg/ml of bovine serum albumin (BSA) and 1 mM EDTA to be 10 ng per final reaction. The test compounds were subjected to serial dilution in a buffer under the condition containing up to 0.1% of DMSO. FRET peptides containing human FGF21 sequence ([…]) conjugated with HyLite Fluor 488 and dark quencher QXL 520 (Anaspec) was used as a substrate. By dissolving in DMSO and then diluting in the same buffer, the substrate was added to be 6 μM per final reaction. All reactions of FRET assay was conducted at 37° C.

In a further test the target is DPP4 (Homo sapiens, UniProt P27487). Briefly: DPP4 inhibition, fluorogenic substrate H-Gly-Pro-AMC. Details: purchased R&D Systems.
Sequence of DPP4 (P27487 whole entry): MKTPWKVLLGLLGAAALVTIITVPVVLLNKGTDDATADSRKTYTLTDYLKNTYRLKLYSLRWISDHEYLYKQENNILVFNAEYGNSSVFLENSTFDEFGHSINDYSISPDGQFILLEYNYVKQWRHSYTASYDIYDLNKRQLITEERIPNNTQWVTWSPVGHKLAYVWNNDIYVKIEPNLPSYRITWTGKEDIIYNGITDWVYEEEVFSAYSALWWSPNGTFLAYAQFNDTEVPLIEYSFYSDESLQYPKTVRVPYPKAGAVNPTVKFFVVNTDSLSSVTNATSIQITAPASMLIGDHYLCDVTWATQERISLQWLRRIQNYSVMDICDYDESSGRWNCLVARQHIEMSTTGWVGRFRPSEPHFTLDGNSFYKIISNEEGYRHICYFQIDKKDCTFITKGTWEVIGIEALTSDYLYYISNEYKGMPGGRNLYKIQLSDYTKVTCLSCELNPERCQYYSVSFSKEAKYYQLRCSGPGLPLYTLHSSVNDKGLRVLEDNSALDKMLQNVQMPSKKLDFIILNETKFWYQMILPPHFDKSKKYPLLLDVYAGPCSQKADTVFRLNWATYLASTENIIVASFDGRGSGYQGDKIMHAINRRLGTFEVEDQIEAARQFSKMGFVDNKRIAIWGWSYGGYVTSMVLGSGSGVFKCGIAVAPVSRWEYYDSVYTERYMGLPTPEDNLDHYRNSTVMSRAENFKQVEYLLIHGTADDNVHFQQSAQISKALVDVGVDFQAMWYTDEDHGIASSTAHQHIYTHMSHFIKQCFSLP
Test [2] concerns the target T1, Recombinant human FAP. Briefly: FAP inhibition, fluorogenic substrate Z-Gly-Pro-AMC. As to conditions: 25° C., Z-Gly-Pro-AMC substrate. Put shortly: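 Recombinant human FAP, 10 ng per reaction, in 50 mM Tris pH 7.5 with 1 M NaCl and 1 mg/ml BSA at 25° C; substrate Z-Gly-Pro-AMC, ≤0.1% DMSO. AMC fluorescence read at ex 380/em 460 nm; % signal-rate decrease vs no-inhibitor control, 8-point curves fitted to a four-parameter logistic for IC50.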

The target of the next test is T2, recombinant human DPP7 (Homo sapiens, UniProt Q9UHL4).
T2 construct: purchased R&D Systems
Description: DPP7 inhibition, fluorogenic substrate Lys-Pro-AMC. The method, then: (§1) The compounds according to the present technology were evaluated in terms of the inhibitory effect on the activity of dipeptidyl peptidases including FAP by using a substrate producing fluorescent substances upon enzymatic decomposition. The test was conducted at 25° C. to get a final reaction volume of 100 μL in a 96 black well plate. […] Briefly, the test compounds were dissolved in dimethyl sulfoxide (DMSO) at a concentration of 20 mM and then subjected to serial dilution, thereby creating an 8 point curve. As for the control group, a 6 point curve created by serial dilution of Talabostat in the same buffer solution was used. Fluorescence intensity was measured using a microplate reader (Flexstation3, Molecular Devices) under the wavelength condition exciting at 380 nm and reading the emission at 460 nm. The inhibitory effect of the test compounds was measured as a decrease (%) in the signal rate as compared to the control group without any inhibitor. Data was fixed to a logistic model with four variables and IC50 value was calculated using GraphPad Prism program. As for recombinant human DPP4 (R&D Systems), 25 mM tris (pH 8.0) buffer as a buffer solution and H-Gly-Pro-AMC (Bachem) as a substrate were used. As for recombinant human DPP7 (R&D Systems), 25 mM MES (pH 6.0) buffer as a buffer solution and Lys-Pro-AMC (Bachem) as a substrate were used. As for recombinant human DPP8 (PBS Bioscience), as a buffer solution, a 10 mM tris (pH 7.4) buffer comprising 10 mM of magnesium chloride and 0.05% of Tween 20, and Z-Ala-Pro-AMC (BPS Bioscience) as a substrate were used. As for recombinant human DPP9 (R&D Systems), a 25 mM tris (pH 8.0) buffer as a buffer solution and H-Gly-Pro-AMC (Bachem) as a substrate were used. As for recombinant human PREP (R&D System), as a buffer solution, a 25 mM tris (pH 7.5) buffer comprising 250 mM sodium chloride and 2.5 mM DTT (Dithiolthreitol), and Z-Gly-Pro-AMC (Bachem) as a substrate were used. The evaluation was made by using 10 ng of DPP4, PDD7, and PREP, 20 ng of DPP8, and 50 ng of DPP9 based on the final reaction. In the evaluation of DPP4, the test compounds were subjected to serial dilution in a buffer under the condition containing up to 0.1% of DMSO. In the evaluation of DPP7, DPP8, DPP9, and PREP, the test compounds were subjected to serial dilution in each buffer under the condition containing up to 0.5% of DMSO.

A further test deals with T3, recombinant human DPP9 (Homo sapiens, UniProt Q86TI2).
T3 construct: purchased R&D Systems
T3 sequence (Q86TI2 whole entry): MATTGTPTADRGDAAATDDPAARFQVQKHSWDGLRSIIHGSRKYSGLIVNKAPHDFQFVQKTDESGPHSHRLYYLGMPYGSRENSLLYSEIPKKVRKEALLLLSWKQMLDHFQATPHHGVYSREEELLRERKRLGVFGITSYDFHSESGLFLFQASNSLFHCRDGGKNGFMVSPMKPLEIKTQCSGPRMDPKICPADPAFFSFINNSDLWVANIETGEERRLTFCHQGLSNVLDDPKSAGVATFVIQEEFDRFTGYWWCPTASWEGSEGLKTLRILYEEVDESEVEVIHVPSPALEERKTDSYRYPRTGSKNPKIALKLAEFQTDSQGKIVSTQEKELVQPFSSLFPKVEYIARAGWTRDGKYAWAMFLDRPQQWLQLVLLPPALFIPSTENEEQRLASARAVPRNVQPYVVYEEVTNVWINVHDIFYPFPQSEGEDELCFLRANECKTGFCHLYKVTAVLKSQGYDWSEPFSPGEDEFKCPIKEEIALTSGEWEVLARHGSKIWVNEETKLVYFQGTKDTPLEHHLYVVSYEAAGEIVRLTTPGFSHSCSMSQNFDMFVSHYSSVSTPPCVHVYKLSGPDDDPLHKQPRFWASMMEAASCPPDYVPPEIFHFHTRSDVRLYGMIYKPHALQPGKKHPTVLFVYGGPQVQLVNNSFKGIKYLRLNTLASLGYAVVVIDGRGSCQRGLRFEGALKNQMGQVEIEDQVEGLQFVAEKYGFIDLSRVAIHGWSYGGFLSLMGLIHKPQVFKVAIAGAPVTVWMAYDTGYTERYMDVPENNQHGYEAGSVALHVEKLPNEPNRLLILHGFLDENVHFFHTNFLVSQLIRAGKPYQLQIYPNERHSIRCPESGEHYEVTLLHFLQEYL
Description: DPP9 inhibition, fluorogenic substrate H-Gly-Pro-AMC. To be noted: at 1 μM. The method, then: as §1

As usually defined, the IC50 is the concentration that gives 50% inhibition. Take `N#C[C@@H]1CCCN1C(=O)CN1CCC(Nc2cc(=O)oc3ccccc23)CC1` [Example 378, (2S)-1-[2-[4-[(2-oxochromen-4-yl)amino]-1-piperidyl]acetyl]pyrrolidine-2-carbonitrile]: the IC50 came out at 0.0992 µM at Recombinant human FAP [1] and 24.5 µM on DPP4 (recombinant human DPP4).

As to `N#C[C@@H]1C[C@H](F)CN1C(=O)CN1CCC(Nc2ccnc(Br)c2)CC1` [Example 383, (2S,4S)-1-[2-[4-[(2-bromo-4-pyridyl)amino]-1-piperidyl]acetyl]-4-fluoro-pyrrolidine-2-carbonitrile], the IC50 on Recombinant human FAP [1] worked out at 0.0393 µM; at DPP4 (recombinant human DPP4), 2.8 µM.

On to `Cc1ccc2nccc(N[C@@H]3CCN(CC(=O)N4C[C@@H](F)C[C@H]4C#N)C3)c2c1` [Example 187, (2S,4S)-4-fluoro-1-[2-[(3R)-3-[(6-methyl-4-quinolyl)amino]pyrrolidin-1-yl]acetyl]pyrrolidine-2-carbonitrile], for which the figures for the IC50 at Recombinant human FAP [1] and on DPP4 (recombinant human DPP4) were 0.0239 µM and 17.6 µM, respectively.

On to `COc1cccc2c(N[C@@H]3CCN(CC(=O)N4C[C@@H](F)C[C@H]4C#N)C3)ccnc12` [Example 195, (2S,4S)-4-fluoro-1-[2-[(3R)-3-[(8-methoxy-4-quinolyl)amino]pyrrolidin-1-yl]acetyl]pyrrolidine-2-carbonitrile], for which the IC50 on Recombinant human FAP [1] stood at 0.0217 µM; on DPP4 (recombinant human DPP4), 14.1 µM.

As to `N#C[C@@H]1C[C@H](F)CN1C(=O)CN1CCC(Nc2cccc3ncc(C(F)(F)F)cc23)CC1` [Example 386, (2S,4S)-4-fluoro-1-[2-[4-[[3-(trifluoromethyl)-5-quinolyl]amino]-1-piperidyl]acetyl]pyrrolidine-2-carbonitrile], the IC50 at Recombinant human FAP [1] came out at 0.0198 µM.

For `COc1ccc2ncc(N(C)C3CCN(CC(=O)N4C[C@@H](F)C[C@H]4C#N)CC3)cc2c1` [Example 327, (2S,4S)-4-fluoro-1-(2-(4-((6-methoxyquinolin-3-yl)(methyl)amino)piperidin-1-yl)acetyl)pyrrolidine-2-carbonitrile], the IC50 at Recombinant human FAP [1] was found to be 0.0031 µM; at DPP4 (recombinant human DPP4), 31.5 µM.

With `N#C[C@@H]1C[C@H](F)CN1C(=O)CN1CCC(Nc2ccnc3c(F)cccc23)CC1` [Example 345, (2S,4S)-4-fluoro-1-[2-[4-[(8-fluoro-4-quinolyl)amino]-1-piperidyl]acetyl]pyrrolidine-2-carbonitrile], the IC50 on Recombinant human FAP [1] turned out to be 0.0193 µM; at DPP4 (recombinant human DPP4), 6.47 µM.

As for `N#C[C@@H]1C[C@H](F)CN1C(=O)CN1CCC(Nc2cccc3ncc(C(=O)Nc4ccccc4)cc23)CC1` [Example 388, 5-[[1-[2-oxo-2-[(2S,4S)-2-cyano-4-fluoro-pyrrolidin-1-yl]ethyl]-4-piperidyl]amino]-N-phenyl-quinoline-3-carboxamide], the IC50 on Recombinant human FAP [1] came to 0.0702 µM; at DPP4 (recombinant human DPP4) it was 6.89 µM.

In the case of `N#C[C@@H]1C[C@H](F)CN1C(=O)CN1CCC(Nc2cnc3ncccc3c2)CC1` [Example 368, (2S,4S)-4-fluoro-1-[2-[4-(1,8-naphthyridin-3-ylamino)-1-piperidyl]acetyl]pyrrolidine-2-carbonitrile], the IC50 at Recombinant human FAP [1] was 0.0367 µM; on DPP4 (recombinant human DPP4), at least 10 µM.

In the case of `N#C[C@@H]1CCCN1C(=O)CN1CC[C@@H](Nc2ccnc3c(F)cccc23)C1` [Example 227, (2S)-1-[2-[(3R)-3-[(8-fluoro-4-quinolyl)amino]pyrrolidin-1-yl]acetyl]pyrrolidine-2-carbonitrile], the IC50 is 0.0072 µM on Recombinant human FAP [1] and 31.7 µM at DPP4 (recombinant human DPP4).

With `N#C[C@@H]1C[C@H](F)CN1C(=O)CN1CCC(Nc2cccc3nc[nH]c23)CC1` [Example 384, (2S,4S)-1-[2-[4-(3H-benzimidazol-4-ylamino)-1-piperidyl]acetyl]-4-fluoro-pyrrolidine-2-carbonitrile], at Recombinant human FAP [1], the half-inhibitory concentration (IC50) was 0.0749 µM.

With `N#C[C@@H]1CCCN1C(=O)CN1CC[C@@H](Nc2ccc3nc(Cl)ccc3c2)C1` [Example 206, (2S)-1-[2-[(3R)-3-[(2-chloro-6-quinolyl)amino]pyrrolidin-1-yl]acetyl]pyrrolidine-2-carbonitrile], the IC50 on Recombinant human FAP [1] is 0.0328 µM.

`N#C[C@@H]1CCCN1C(=O)CN1CCC(Nc2cccc3ncc(C(F)(F)F)cc23)CC1` [Example 387, (2S)-1-[2-[4-[[3-(trifluoromethyl)-5-quinolyl]amino]-1-piperidyl]acetyl]pyrrolidine-2-carbonitrile]: on Recombinant human FAP [1], the IC50 is 0.0324 µM.

On to `N#C[C@@H]1C[C@H](F)CN1C(=O)CN1CCC(Nc2cc(Cl)nc(N3CCOCC3)c2)CC1` [Example 385, (2S,4S)-1-[2-[4-[(2-chloro-6-morpholino-4-pyridyl)amino]-1-piperidyl]acetyl]-4-fluoro-pyrrolidine-2-carbonitrile], for which, at Recombinant human FAP [1], the IC50 came to 0.0774 µM.

For `N#C[C@@H]1CCCN1C(=O)CN1CC[C@H](Oc2ccnc3c(C(F)(F)F)cccc23)C1` [Example 95, (S)-1-(2-((S)-3-((8-(trifluoromethyl)quinolin-4-yl)oxy)pyrrolidin-1-yl)acetyl)pyrrolidine-2-carbonitrile], the IC50 on Recombinant human FAP [2] is 0.0033 µM; at recombinant human DPP7, 4.74 µM; on DPP4 (25° C., H-Gly-Pro-AMC substrate) it was above 1 µM. The “DPP9 inhibition % at 1 μM” value at recombinant human DPP9 is “No inhibition**”.

As to `N#C[C@@H]1C[C@H](F)CN1C(=O)CN1CC[C@@H](Nc2ccc3nc(Cl)ccc3c2)C1` [Example 207, (2S,4S)-4-fluoro-1-[2-[(3R)-3-[(2-chloro-6-quinolyl)amino]pyrrolidin-1-yl]acetyl]pyrrolidine-2-carbonitrile], the IC50 at Recombinant human FAP [1] is 0.0179 µM.
